The results in this text go back to ChEMBL document CHEMBL5576071, “Structure optimization of Cmpd-15 as negative allosteric modulators for the β2-adrenergic receptor” (Bioorg Med Chem, 2024).

In data set [1] the target is Beta-2 adrenergic receptor (Homo sapiens) (UniProt P07550). In words: Negative allosteric modulation of beta-2 adrenergic receptor (unknown origin) transfected in HEK293 cells assessed as decrease in cAMP accumulation at 50 uM preincubated for 20 mins followed by ISO treatment for 5 mins for by Glo sensor assay relative to 4-((2S)-3-(((S)-3-(3-bromophenyl)-1-(methylamino)-1-oxopropan-2-yl)amino)-2-(2-cyclohexyl-2-phenylacetamido)-3-oxopropyl)benzamide. In kind it is functional, cell-based. To be noted: filed as negative allosteric modulator, time 25.0 min. (In general: Cyclic AMP is a second messenger, typically raised through Gs and lowered through Gi signalling.)

Data set [2] has the same target. Put plainly: Potency index, ratio of 4-((2S)-3-(((S)-3-(3-bromophenyl)-1-(methylamino)-1-oxopropan-2-yl)amino)-2-(2-cyclohexyl-2-phenylacetamido)-3-oxopropyl)benzamide Imax to test compound Imax for negative allosteric modulation of beta-2 adrenergic receptor (unknown origin) transfected in HEK293 cells assessed as decrease in cAMP accumulation at 50 uM preincubated for 20 mins followed by ISO treatment for 5 mins for by Glo sensor assay. In kind it is functional, cell-based. Particulars: filed as negative allosteric modulator, time 25.0 min.

The nature of data set [3]: Metabolic stability in mouse liver microsomes assessed as half life at 1 uM preincubated for 5 mins followed by NADPH addition measured for 5 to 60 mins by LC-MS/MS analysis. Particulars: time 10-65 min. In kind it is ADME, Microsome. In general terms: Liver microsomes are a subcellular fraction often used to study metabolism.
Data set [4] can be described thus: Metabolic stability in human liver microsomes assessed as half life at 1 uM preincubated for 5 mins followed by NADPH addition measured for 5 to 60 mins by LC-MS/MS analysis. To be noted: time 10-65 min. The class given is ADME, Microsome.
Data set [5] can be described thus: Metabolic stability in mouse liver microsomes assessed as hepatic extraction ratio at 1 uM preincubated for 5 mins followed by NADPH addition measured for 5 to 60 mins by LC-MS/MS analysis. The class given is ADME, Microsome. Particulars: time 10-65 min, read-out: ERH.
Data set [6] in a line: Metabolic stability in human liver microsomes assessed as hepatic extraction ratio at 1 uM preincubated for 5 mins followed by NADPH addition measured for 5 to 60 mins by LC-MS/MS analysis. The class given is ADME, Microsome. To be noted: time 10-65 min, read-out: ERH.

Beta-2 adrenergic receptor (Homo sapiens), sequence (P07550 whole entry, looked up): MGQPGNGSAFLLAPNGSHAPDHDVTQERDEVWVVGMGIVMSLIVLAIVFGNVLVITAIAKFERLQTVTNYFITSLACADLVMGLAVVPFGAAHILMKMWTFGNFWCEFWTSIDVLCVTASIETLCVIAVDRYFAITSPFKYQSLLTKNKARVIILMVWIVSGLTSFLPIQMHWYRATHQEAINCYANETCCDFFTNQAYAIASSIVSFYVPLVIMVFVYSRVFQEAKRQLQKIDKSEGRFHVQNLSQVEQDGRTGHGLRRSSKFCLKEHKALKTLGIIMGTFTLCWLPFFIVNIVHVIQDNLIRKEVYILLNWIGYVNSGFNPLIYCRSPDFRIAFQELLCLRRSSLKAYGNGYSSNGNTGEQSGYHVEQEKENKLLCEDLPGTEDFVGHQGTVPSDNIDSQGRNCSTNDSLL

With `CNC(=O)[C@H](Cc1cccc(Br)c1)NC(=O)c1cc(-c2ccc(F)cc2)nn1Cc1cccc(Br)c1`, the Imax in data set [1] is 130%. For the same compound, the Ratio in data set [2] was found to be 1.3.
Turning to `CNC(=O)[C@H](Cc1cccc(Br)c1)NC(=O)c1cc(-c2ccccc2)nn1Cc1ccc(Cl)cc1`, in data set [1], the Imax was 114%. Moreover, the Ratio in data set [2] stood at 1.14.
For `CNC(=O)[C@H](Cc1cccc(Br)c1)NC(=O)c1cc(-c2ccccc2)nn1Cc1cccc(I)c1`, the Imax in data set [1] stood at 125%. In data set [2], the Ratio turned out to be 1.25.
The matching figures for `CNC(=O)[C@H](Cc1cccc(Br)c1)NC(=O)c1cc(-c2ccccc2)nn1Cc1ccccc1Cl`: 114% and 1.14.
For `CNC(=O)[C@H](Cc1cccc(Br)c1)NC(=O)c1cc(-c2cccc(Cl)c2)nn1Cc1cccc(Br)c1`, the Imax in data set [1] was determined as 127%. Further, the Ratio in data set [2] came out at 1.27.
On to `CNC(=O)[C@H](Cc1cccc(Br)c1)NC(=O)c1cc(-c2ccc(Br)cc2)nn1Cc1cccc(Br)c1`, for which, in data set [1], the Imax came to 109%. In data set [2], the Ratio turned out to be 1.09.
Broadly, the half-life is the time in which the quantity being followed falls by half. For `CNC(=O)[C@H](Cc1cccc(Br)c1)NC(=O)[C@H](Cc1ccc(C(N)=O)cc1)NC(=O)C(c1ccccc1)C1CCCCC1` (stereo not given in full), the half-life at 1 µM in data set [3] turned out to be 2.19 min; in data set [4] it was 1.53 min. Also, the values for the hepatic extraction ratio at 1 µM in data set [5] and in data set [6] were 0.986 and 0.993, respectively.
On to `CNC(=O)[C@H](Cc1cccc(Br)c1)NC(=O)c1cc(-c2ccccc2)nn1Cc1ccc(F)cc1`, for which the Imax in data set [1] was 114%. Moreover, the Ratio in data set [2] was 1.14.
As to `CNC(=O)[C@H](Cc1cccc(Br)c1)NC(=O)c1cc(-c2ccccc2)nn1Cc1ccc(C#N)cc1`, the Imax in data set [1] was 100%. Besides, in data set [2], the Ratio worked out at 1.
With `CNC(=O)[C@H](Cc1cccc(Br)c1)NC(=O)c1cc(-c2ccccc2Cl)nn1Cc1cccc(Br)c1`, the Imax in data set [1] came out at 118%. Moreover, the Ratio in data set [2] stood at 1.18.
The matching figures for `CNC(=O)[C@H](Cc1cccc(Br)c1)NC(=O)c1cc(-c2ccccc2Br)nn1Cc1cccc(Br)c1`: 91% and 0.91.
In the case of `CNC(=O)[C@H](Cc1cccc(Br)c1)NC(=O)c1cc(-c2ccccc2)nn1Cc1cccc(Cl)c1`, the Imax in data set [1] was 114%. In addition, the Ratio in data set [2] turned out to be 1.14.
Taken in the same sequence, the figures for `CNC(=O)[C@H](Cc1cccc(Br)c1)NC(=O)c1cc(-c2cccc(Br)c2)nn1Cc1cccc(Br)c1` were 100% and 1.
On to `CNC(=O)[C@H](Cc1cccc(Br)c1)NC(=O)c1cc(-c2ccccc2[N+](=O)[O-])nn1Cc1cccc(Br)c1`, for which the Imax in data set [1] turned out to be 120%. The Ratio in data set [2] was 1.2.
`CNC(=O)[C@H](Cc1cccc(Br)c1)NC(=O)c1cc(-c2ccccc2)nn1Cc1ccccc1F`: the Imax in data set [1] is 143%. Further, in data set [2], the Ratio was 1.43. Also, the half-life at 1 µM in data set [3] came to 58.7 min; in data set [4], 41.5 min. For the same compound, the hepatic extraction ratio at 1 µM in data set [5] was 0.721; in data set [6] it was 0.835.
For the compound `CNC(=O)[C@H](Cc1cccc(Br)c1)NC(=O)c1cc(-c2ccccc2)nn1Cc1cccc(F)c1`, the Imax in data set [1] stood at 133%. Also, the Ratio in data set [2] turned out to be 1.33.
Regarding `CNC(=O)[C@H](Cc1cccc(Br)c1)NC(=O)c1cc(-c2ccccc2)nn1Cc1ccccc1C#N`, the Imax in data set [1] was 67%. Moreover, the Ratio in data set [2] stood at 0.67.
